Patent publication US20240083920A1, “LOW MOLECULAR WEIGHT CORROLE COMPOSITIONS” (TECHNION RESEARCH & DEVELOPMENT FOUNDATION LTD, priority 2021, published 2024)

Experiment: Stability in solution / on storage
Details: in solution / ambient conditions

C1=Cc2cc3ccc([nH]3)c3ccc(cc4ccc(cc1n2)[nH]4)[nH]3 [H3(cor)]
stability: stability was limited due to ambient humidity and light conditions
